Reference: paper PMC11203676, “Synthesis, Molecular Electron Density Theory Study, Molecular Docking, and Pharmacological Evaluation of New Coumarin–Sulfonamide–Nitroindazolyl–Triazole Hybrids as Monoamine Oxidase Inhibitors” (International Journal of Molecular Sciences, 2024)

Assays:
[1] = biological target: T1, hBChE (BChE from human serum) (Homo sapiens, UniProt P06276); assay: BChE inhibition, spectrophotometric method of Ellman; format: biochemical; settings: at 10 µM concentration; ni: no inhibition; mean ± SEM (n = 3)
T1 construct: BChE from human serum; purchased Sigma Aldrich (Milan, Italy); host or cells: human serum
T1 sequence (P06276 29-602): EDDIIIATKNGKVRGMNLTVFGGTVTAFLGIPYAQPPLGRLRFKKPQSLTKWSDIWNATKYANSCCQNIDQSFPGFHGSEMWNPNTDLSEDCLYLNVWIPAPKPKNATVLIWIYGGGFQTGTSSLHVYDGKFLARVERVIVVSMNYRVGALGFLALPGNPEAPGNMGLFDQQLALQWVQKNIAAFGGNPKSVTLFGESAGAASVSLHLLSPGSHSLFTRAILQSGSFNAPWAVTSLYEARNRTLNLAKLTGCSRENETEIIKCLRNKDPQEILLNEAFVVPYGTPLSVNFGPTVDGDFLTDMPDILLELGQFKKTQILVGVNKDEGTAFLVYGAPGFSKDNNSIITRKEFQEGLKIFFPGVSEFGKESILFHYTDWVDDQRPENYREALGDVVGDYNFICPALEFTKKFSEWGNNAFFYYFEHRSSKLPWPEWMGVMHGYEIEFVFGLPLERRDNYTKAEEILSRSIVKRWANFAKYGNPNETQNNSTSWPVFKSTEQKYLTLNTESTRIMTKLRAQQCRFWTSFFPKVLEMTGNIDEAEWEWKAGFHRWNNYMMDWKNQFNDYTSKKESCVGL
Method: (§1) Human recombinant AChE, BChE from human serum, and human MAOs from baculovirus-infected insect cells were purchased from Sigma Aldrich (Milan, Italy). […] All experiments were carried out in triplicate and results expressed as mean ± SEM.
(§2) AChE/BChE and MAO A/B inhibition were, respectively, determined with the spectrophotometric method of Ellman, and a fluorimetric method using kynuramine as MAO substrate, as previously described.

[2] = biological target: T2, hMAO-B (Homo sapiens, UniProt P27338); assay: MAO-B inhibition, fluorimetric method with kynuramine as substrate; format: biochemical; settings: read-out: hMAO-B % Inhibition
T2 construct: purchased Sigma Aldrich (Milan, Italy); host or cells: baculovirus-infected insect cells
T2 sequence (P27338 1-520): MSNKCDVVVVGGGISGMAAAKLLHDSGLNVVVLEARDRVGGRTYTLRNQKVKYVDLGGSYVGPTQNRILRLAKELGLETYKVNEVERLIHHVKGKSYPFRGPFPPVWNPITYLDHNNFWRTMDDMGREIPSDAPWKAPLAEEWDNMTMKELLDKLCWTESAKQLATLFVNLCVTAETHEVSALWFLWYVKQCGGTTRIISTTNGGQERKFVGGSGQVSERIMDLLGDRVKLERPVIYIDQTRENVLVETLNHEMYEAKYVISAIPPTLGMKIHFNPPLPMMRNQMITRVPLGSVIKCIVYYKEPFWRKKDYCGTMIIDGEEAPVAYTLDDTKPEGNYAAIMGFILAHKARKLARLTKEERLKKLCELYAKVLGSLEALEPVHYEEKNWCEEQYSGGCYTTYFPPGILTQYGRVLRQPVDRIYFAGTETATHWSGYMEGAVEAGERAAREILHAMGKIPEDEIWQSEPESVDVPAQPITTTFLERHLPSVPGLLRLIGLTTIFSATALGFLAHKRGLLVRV
Method: as §1, §2

[3] = biological target: T3, hMAO-A (Homo sapiens, UniProt P21397); assay: biochemical; settings: for inhibition at 10 µM: read-out: hMAO-A % Inhibition
T3 construct: purchased Sigma Aldrich (Milan, Italy); host or cells: baculovirus-infected insect cells
T3 sequence (P21397 1-527): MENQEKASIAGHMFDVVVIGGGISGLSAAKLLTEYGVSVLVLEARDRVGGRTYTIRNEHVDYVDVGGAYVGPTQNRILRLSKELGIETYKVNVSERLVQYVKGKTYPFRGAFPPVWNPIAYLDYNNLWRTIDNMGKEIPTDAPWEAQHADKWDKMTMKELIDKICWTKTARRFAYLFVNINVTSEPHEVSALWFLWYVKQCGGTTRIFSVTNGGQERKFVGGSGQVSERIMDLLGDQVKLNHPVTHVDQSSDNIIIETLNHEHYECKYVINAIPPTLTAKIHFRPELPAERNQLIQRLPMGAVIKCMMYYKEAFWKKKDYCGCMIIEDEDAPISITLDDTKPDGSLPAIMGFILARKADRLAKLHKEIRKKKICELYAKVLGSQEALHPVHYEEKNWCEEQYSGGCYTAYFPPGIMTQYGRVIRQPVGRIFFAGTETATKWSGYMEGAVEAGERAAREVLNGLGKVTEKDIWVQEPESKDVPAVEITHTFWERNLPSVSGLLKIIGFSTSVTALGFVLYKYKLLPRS
Method: as §1, §2

[4] = biological target: T4, hAChE (human recombinant AChE) (Homo sapiens, UniProt P22303); assay: biochemical
T4 construct: purchased Sigma Aldrich (Milan, Italy)
T4 sequence (P22303 32-614): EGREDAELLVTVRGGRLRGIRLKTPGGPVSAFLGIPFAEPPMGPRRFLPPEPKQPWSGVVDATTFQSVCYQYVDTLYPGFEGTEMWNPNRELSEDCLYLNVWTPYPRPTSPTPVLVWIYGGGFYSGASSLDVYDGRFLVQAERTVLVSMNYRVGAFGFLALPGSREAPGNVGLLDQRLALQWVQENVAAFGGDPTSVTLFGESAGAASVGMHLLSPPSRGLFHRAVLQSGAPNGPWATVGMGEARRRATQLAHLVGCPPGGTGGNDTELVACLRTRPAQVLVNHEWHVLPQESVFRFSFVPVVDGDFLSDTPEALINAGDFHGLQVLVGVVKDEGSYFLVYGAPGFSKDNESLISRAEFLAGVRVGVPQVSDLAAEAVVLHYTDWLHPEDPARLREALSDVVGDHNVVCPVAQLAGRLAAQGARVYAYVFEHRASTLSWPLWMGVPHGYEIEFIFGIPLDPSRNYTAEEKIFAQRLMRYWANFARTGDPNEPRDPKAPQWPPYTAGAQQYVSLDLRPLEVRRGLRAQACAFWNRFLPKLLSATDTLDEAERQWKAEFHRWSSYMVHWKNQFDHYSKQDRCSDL
Method: as §1, §2

Compound	hBChE % Inhibition [1]	inhibition at 10 µM [2]	IC50 [3]	inhibition at 10 µM [3]	inhibition at 10 µM [4]	inhibition at 10 µM [1]	melting point
O=c1ccc2cc(N(Cc3cn(CCn4ncc5ccc([N+](=O)[O-])cc54)nn3)S(=O)(=O)c3ccc(Cl)cc3)ccc2o1 [14c, 4-Chloro-N-((1-(2-(6-nitro-1H-indazol-1-yl)ethyl)-1H-1,2,3-triazol-4-yl)methyl)-N-(2-oxo-2H-chromen-6-yl)benzenesulfonamide]	ni	45 ± 1%	28 ± 2.2 µM	67 ± 5%	42 ± 1%	–	–
Cc1ccc(S(=O)(=O)N(Cc2cn(CCn3ncc4ccc([N+](=O)[O-])cc43)nn2)c2ccc3oc(=O)ccc3c2)cc1 [14a, 4-Methyl-N-((1-(2-(6-nitro-1H-indazol-1-yl)ethyl)-1H-1,2,3-triazol-4-yl)methyl)-N-(2-oxo-2H-chromen-6-yl)benzenesulfonamide]	–	39 ± 3%	14.8 ± 1.6 µM	76 ± 5%	51 ± 2%	48 ± 4%	–
C#CCN(c1ccc2oc(=O)ccc2c1)S(=O)(=O)c1ccc(C)cc1 [13a, 4-Methyl-N-(2-oxo-2H-chromen-6-yl)-N-(prop-2-yn-1-yl)benzenesulfonamide]	ni	12 ± 1%	–	13 ± 5%	60 ± 3%	–	–
COc1ccc(S(=O)(=O)Nc2ccc3oc(=O)ccc3c2)cc1 [11b, 4-Methoxy-N-(2-oxo-2H-chromen-6-yl)benzenesulfonamide]	ni	34 ± 3%	–	26 ± 3%	57 ± 4%	–	–
CN(c1ccc2oc(=O)ccc2c1)S(=O)(=O)c1ccc(Cl)cc1	–	–	–	–	–	–	244 to 246 °C
COc1ccc(S(=O)(=O)N(Cc2cn(CCn3ncc4ccc([N+](=O)[O-])cc43)nn2)c2ccc3oc(=O)ccc3c2)cc1 [14b, 4-Methoxy-N-((1-(2-(6-nitro-1H-indazol-1-yl)ethyl)-1H-1,2,3-triazol-4-yl)methyl)-N-(2-oxo-2H-chromen-6-yl)benzenesulfonamide]	–	23 ± 4%	16.9 ± 1.9 µM	81 ± 5%	44 ± 3%	31 ± 5%	–
C#CCN(c1ccc2oc(=O)ccc2c1)S(=O)(=O)c1ccc(Cl)cc1 [13c, 4-Chloro-N-(2-oxo-2H-chromen-6-yl)-N-(prop-2-yn-1-yl)benzenesulfonamide]	ni	20 ± 2%	–	37 ± 5%	48 ± 2%	–	–
Cc1ccc(S(=O)(=O)Nc2ccc3oc(=O)ccc3c2)cc1 [11a, 4-Methyl-N-(2-oxo-2H-chromen-6-yl)benzenesulfonamide]	ni	45 ± 2%	2.46 ± 0.67 µM	76 ± 3%	55 ± 3%	–	–
O=c1ccc2cc(NS(=O)(=O)c3ccc(Cl)cc3)ccc2o1 [11c, 4-Chloro-N-(2-oxo-2H-chromen-6-yl)benzenesulfonamide]	ni	26 ± 4%	–	9 ± 4%	55 ± 3%	–	–
C#CCN(c1ccc2oc(=O)ccc2c1)S(=O)(=O)c1ccc(OC)cc1 [13b, 4-Methoxy-N-(2-oxo-2H-chromen-6-yl)-N-(prop-2-yn-1-yl)benzenesulfonamide]	ni	28 ± 2%	–	22 ± 7%	49 ± 3%	–	–
